Several values for one entry are separate records, joined by “and”; a condition that tells them apart may be missing. Equal entries are not always repeated. Entries after “also recorded” stand apart in the source; their conditions may differ. Where two headings read alike, the source gives them in different places.
Tests used:
[1] = target: αHL•βCD (Staphylococcus aureus, UniProt P09616); assay: biochemical; format: biochemical; conditions: for K^Af (formation constant of αHL•βCD•A) / ΔG of analyte binding to αHL•βCD: pH 3.0
[2] = cited from earlier work
[3] = target: αHL pore (Staphylococcus aureus, UniProt P09616); format: biochemical
[4] = format: binding; conditions: pH 3.0
[5] = target: WT-αHL pore (Staphylococcus aureus, UniProt P09616); format: biochemical; conditions: pH 7.5
Sequence of WT-αHL pore (P09616 27-319 limits assumed): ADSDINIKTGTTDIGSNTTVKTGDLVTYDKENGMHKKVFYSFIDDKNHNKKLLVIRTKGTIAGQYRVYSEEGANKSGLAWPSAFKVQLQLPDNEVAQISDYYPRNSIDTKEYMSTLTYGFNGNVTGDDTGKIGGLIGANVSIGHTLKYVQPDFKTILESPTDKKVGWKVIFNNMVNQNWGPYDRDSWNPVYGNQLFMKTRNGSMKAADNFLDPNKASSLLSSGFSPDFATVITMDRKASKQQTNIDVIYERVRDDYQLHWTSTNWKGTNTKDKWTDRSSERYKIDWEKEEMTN

Sequence of αHL•βCD (P09616 27-319 limits assumed): as above
Sequence of αHL pore (P09616 27-319 limits assumed): as above

Compound: Cl.NC12CC3CC(CC(C3)C1)C2 [1-adamantanamine hydrochloride]
- (IP·C·A IP·C)/(IP·C·A-IP) [1]: 0.294 ± 0.005
- Kd [1]: 109 ± 4.95 µM
- Residence time (τ) of the analyte on αHL·βCD [1]: 1.42 ± 0.14 ms

Compound: NC(=O)C12CC3CC(CC(C3)C1)C2 [1-adamantanecarboxamide]
- (IP·C·A IP·C)/(IP·C·A-IP) [1]: 0.333 ± 0.005
- Kd [1]: 34.2 ± 2.77 µM
- Residence time (τ) of the analyte on αHL·βCD [1]: 3.99 ± 0.18 ms

Compound: O=C(O)C12CC3CC(CC(C3)C1)C2 [1-adamantanecarboxylic acid]
- Literature ΔG for binding to βCD ([2]; pH 4.05): -31.4 kJ/mol
- Literature ΔG for binding to βCD ([2]; pH 7.2): -26.8 kJ/mol
- binding to the pore without adapter/carrier [3]: does not bind to the pore
- K^Af (formation constant of analyte with βCD in solution) [4]: 5.76±1.50×10^4 M^−1
- ΔG of analyte binding to βCD in solution [4]: -27.2 kJ/mol
- (IP·C·A IP·C)/(IP·C·A-IP) [1]: 0.346 ± 0.005
- Kd [1]: 7.53 ± 1.16 µM
- Residence time (τ) of the analyte on αHL·βCD [1]: 14.0 ± 0.79 ms
- conductance of the partially blocked channel (αHL•βCD) with guest [1]: 112.2 pS
- residence time (τ) of guest [1]: 14.0 ms
- single channel current level, additional block of αHL•βCD [1]: −4.7 pA
- K^Af (formation constant of αHL•βCD•A) [1]: 1.35±0.19×10^5 M^−1
- ΔG of analyte binding to αHL•βCD [1]: -29.3 kJ/mol

Compound: OCCC12CC3CC(CC(C3)C1)C2 [1-adamantaneethanol]
- (IP·C·A IP·C)/(IP·C·A-IP) [1]: 0.348 ± 0.003
- Kd [1]: 3.33 ± 1.07 µM
- Residence time (τ) of the analyte on αHL·βCD [1]: 30.6 ± 2.42 ms

Compound: Cl.NC1C2CC3CC(C2)CC1C3 (stereo not shown) [2-adamantanamine hydrochloride]
- effect on the completely open channel ([3]; hydrochloride): does not affect; also recorded: no effect
- K^Af (formation constant of analyte with βCD in solution) [4]: 9.84±2.19×10^3 M^−1
- ΔG of analyte binding to βCD in solution [4]: -23 kJ/mol
- (IP·C·A IP·C)/(IP·C·A-IP) [1]: 0.286 ± 0.004
- Kd [1]: 98.6 ± 14.3 µM
- Residence time (τ) of the analyte on αHL·βCD [1]: 2.54 ± 0.21 ms
- conductance of the partially blocked channel (αHL•βCD) with guest [1]: 126.5 pS
- residence time (τ) of guest [1]: 2.54 ms
- residence time of βCD•A on αHL compared with βCD [1]: greater than βCD itself
- single channel current level, additional block of αHL•βCD [1]: −5.7 pA
- K^Af (formation constant of αHL•βCD•A) [1]: 1.03±0.15×10^4 M^−1
- ΔG of analyte binding to αHL•βCD [1]: -23 kJ/mol

Compound: CC(=O)NC12CC3CC(CC(C3)C1)C2 [N-(1-adamantyl)acetamide, N-(1-adamantyl)-acetamide]
- (IP·C·A IP·C)/(IP·C·A-IP) [1]: 0.348 ± 0.003
- Kd [1]: 14 ± 2.24 µM
- Residence time (τ) of the analyte on αHL·βCD [1]: 7.32 ± 2.13 ms

Compound: heptakis-6-sulfato-β-cyclodextrin [s7βCD]
- PK+/PNa+ [5]: 0.92
- dwell time (τ) of adapter on WT-αHL pore [5]: 846 ± 37 ms
- g (conductance) [5]: 53 pS and 53 ± 6 pS

Compound: α-cyclodextrin
- block of the ionic current [3]: reversible partial blocks

Compound: β-cyclodextrin [βCD]
- dwell time (τ) of adapter on WT-αHL pore [5]: 0.84 ms
- g (conductance) [5]: 240 pS and 240 ± 5 pS
- block of the ionic current [3]: reversible partial blocks
- partial block of the channel [3]: 64%
- single channel current level with βCD bound [3]: −11.5 pA
- K^Cf (equilibrium formation constant αHL•βCD) ([3]; pH 3): 475 M⁻¹
- conductance of αHL in the presence of βCD ([3]; pH 3): 272 pS
- k^Coff ([3]; pH 3): 115 s⁻¹
- k^Con ([3]; pH 3): 54600 M⁻¹ s⁻¹

Compound: γ-cyclodextrin [γCD]
- g (conductance) [5]: 328 pS and 328 ± 4 pS
- block of the ionic current [3]: reversible partial blocks
